Assay results published in PMC8246065 (The EMBO Journal, 2021).

Columns and labels:
[1] = molecular target: T1, NOD1∆LRR (Homo sapiens, UniProt Q9Y239); assay: MST with cell lysates expressing NOD1 mutants; assay type: binding; conditions: Fig EV5D
T1 sequence (Q9Y239 1-531 limits assumed): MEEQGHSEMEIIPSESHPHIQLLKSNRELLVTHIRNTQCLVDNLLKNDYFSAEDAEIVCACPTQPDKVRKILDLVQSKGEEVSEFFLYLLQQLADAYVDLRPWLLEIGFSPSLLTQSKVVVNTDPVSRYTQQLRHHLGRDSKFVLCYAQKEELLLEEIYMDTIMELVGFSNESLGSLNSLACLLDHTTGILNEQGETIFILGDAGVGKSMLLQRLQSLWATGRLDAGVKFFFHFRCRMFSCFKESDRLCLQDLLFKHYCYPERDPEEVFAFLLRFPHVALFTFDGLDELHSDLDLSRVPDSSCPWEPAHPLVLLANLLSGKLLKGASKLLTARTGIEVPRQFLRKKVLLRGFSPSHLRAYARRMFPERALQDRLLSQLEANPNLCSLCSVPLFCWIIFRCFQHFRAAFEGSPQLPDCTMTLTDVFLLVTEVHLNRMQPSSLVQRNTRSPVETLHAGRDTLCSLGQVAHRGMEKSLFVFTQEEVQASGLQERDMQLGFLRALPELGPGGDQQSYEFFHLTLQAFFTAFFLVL
Procedure: (§1) Binding of NOD1, NOD2, GFP, or NLRP3‐GFP to different ligands was measured by microscale thermophoresis (MST). 20 nM GFP or GFP‐tagged proteins in MST buffer (PBS pH 7.4, containing 0.5% NP‐40 and 10 mM DTT) was incubated with different concentrations of ligands. Immediately, samples were loaded into standard glass capillaries (NanoTemper) and thermophoresis analysis was performed on a NanoTemper Monolith NT.115 instrument (40% LED, 80% MST power) at 22°C. A laser on‐time of 30 s and a laser off‐time of 5 s were used. The experiment was performed in triplicates, and the MST curves were fitted using NT analysis software to obtain the K d values.

[2] = system: NOD1/2-RIP2 interaction; assay: GFP immunoprecipitation of NOD1/2 and Western blot for RIP2; assay type: cell-based, human; conditions: S1P 20 µM with digitonin, 1 h
Procedure: HeLa NOD1 or NOD2 cells were grown overnight and afterward treated with doxycycline overnight to induce NOD1 or NOD2 expression. Cells of one 10‐cm dish were lysed with 500 µl of lysis buffer (25 mM Tris–HCl, pH 7.5, 150 mM NaCl, 1 mM EDTA, 1% NP‐40, and 5% glycerol) supplemented with protease inhibitors (Roche, 05892791001) on ice for 20 min. Lysates were centrifuged at 16,000 × g at 4°C for 10 min, and supernatants were mixed with GFP‐Trap agarose (ChromoTek GmbH, gta‐20) overnight at 4°C. Afterward, agaroses were washed twice with PBS and boiled with sample buffer for SDS–PAGE. For lipid‐coated beads IP, lipid‐coated beads were incubated with supernatants for 2 h at room temperature and then washed with lysis buffer for three times and boiled with sample buffer for SDS–PAGE.

[3] = molecular target: T2, NOD1∆CARD (Homo sapiens, UniProt Q9Y239); assay: MST with cell lysates expressing NOD1 mutants; assay type: binding; conditions: Fig EV5D
T2 sequence (Q9Y239 196-953 limits assumed): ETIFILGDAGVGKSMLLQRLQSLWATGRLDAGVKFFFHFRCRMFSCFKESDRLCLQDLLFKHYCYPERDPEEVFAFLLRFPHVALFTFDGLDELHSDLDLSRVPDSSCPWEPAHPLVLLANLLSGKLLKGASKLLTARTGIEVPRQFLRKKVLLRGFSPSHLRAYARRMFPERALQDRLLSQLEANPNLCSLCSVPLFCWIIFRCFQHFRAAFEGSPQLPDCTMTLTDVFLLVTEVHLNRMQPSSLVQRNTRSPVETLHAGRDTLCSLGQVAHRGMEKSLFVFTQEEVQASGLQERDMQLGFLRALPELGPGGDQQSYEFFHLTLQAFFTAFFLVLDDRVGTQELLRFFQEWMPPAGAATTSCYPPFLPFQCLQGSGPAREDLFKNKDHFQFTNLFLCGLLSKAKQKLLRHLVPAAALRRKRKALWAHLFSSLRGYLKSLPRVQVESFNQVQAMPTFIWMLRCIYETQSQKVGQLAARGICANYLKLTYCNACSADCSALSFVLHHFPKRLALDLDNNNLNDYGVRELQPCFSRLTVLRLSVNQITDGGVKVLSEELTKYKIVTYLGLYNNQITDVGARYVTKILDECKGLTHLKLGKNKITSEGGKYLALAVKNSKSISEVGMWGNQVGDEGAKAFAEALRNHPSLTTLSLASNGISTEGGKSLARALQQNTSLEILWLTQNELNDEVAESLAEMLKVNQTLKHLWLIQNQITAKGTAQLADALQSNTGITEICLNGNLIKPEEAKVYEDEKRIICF
Procedure: as §1

Structure (SMILES): CCCCCCCCCCCCC/C=C/[C@@H](O)[C@@H](N)COP(=O)(O)O [S1P, sphingosine‐1‐phosphate]
- Interaction with NOD1∆LRR by MST [1]: still interacted
- Interaction between NOD1/2 and RIP2 [2]: stimulated the interaction between NOD1/2 and RIP2
- Interaction with NOD1∆CARD by MST [3]: still interacted
